This is an account of results in ChEMBL document CHEMBL4118151, “Highly potent activity of isopulegol-derived substituted octahydro-2H-chromen-4-ols against influenza A and B viruses” (Bioorg Med Chem Lett, 2018).

Data set [1] relates to Influenza A virus. Kind of data set: Antiviral activity against amantadine/rimantadine-resistant Influenza A virus (A/Puerto Rico/8/34(H1N1)) infected in MDCK cells assessed as inhibition of viral replication after 48 hrs by hemagglutination test. It is filed as functional, organism-based. Conditions: A/Puerto Rico/8/1934(H1N1).
Data set [2] is described as follows: Selectivity index, ratio of CC50 for MDCK cells to IC50 for amantadine/rimantadine-resistant Influenza A virus (A/Puerto Rico/8/34(H1N1)). The format is toxicity. The settings on record: dog, read-out: Ratio CC50/IC50.
The subject of data set [3] is Influenza A virus. Kind of data set: Antiviral activity against osaltamivir-resistant Influenza A virus (A/Vladivostok/02/09(H1N1)) infected in MDCK cells assessed as inhibition of viral replication after 48 hrs by hemagglutination test. The format is functional, organism-based.
Data set [4] relates to Influenza A virus. Kind of data set: Antiviral activity against amantadine/rimantadine-resistant Influenza A virus (A/California/07/09(H1N1)) infected in MDCK cells assessed as inhibition of viral replication after 48 hrs by hemagglutination test. The format is functional, organism-based. Conditions: A/California/07/2009(H1N1).
The nature of data set [5]: Selectivity index, ratio of CC50 for MDCK cells to IC50 for amantadine/rimantadine-resistant Influenza A virus (A/California/07/09(H1N1)). It is filed as toxicity. The settings on record: dog, read-out: Ratio CC50/IC50.
Another data set relates to Influenza B virus. Kind of data set: Antiviral activity against amantadine/rimantadine-resistant Influenza B virus (B/Florida/4/06(Yamagata-like)) infected in MDCK cells assessed as inhibition of viral replication after 48 hrs by hemagglutination test. It is filed as functional, organism-based, Influenza B virus (B/Florida/4/2006).
The nature of data set [6]: Selectivity index, ratio of CC50 for MDCK cells to IC50 for osaltamivir-resistant Influenza A virus (A/Vladivostok/02/09(H1N1)). It is filed as toxicity. Conditions: dog, read-out: Ratio CC50/IC50.
A short description of data set [7]: Selectivity index, ratio of CC50 for MDCK cells to IC50 for amantadine/rimantadine-resistant Influenza B virus (B/Florida/4/06/Yamagata-like). It is filed as toxicity. The settings on record: dog, read-out: Ratio CC50/IC50.

In the case of `C[C@@H]1CC[C@@H]2[C@H](C1)OC1(CCCCCCC1)C[C@@]2(C)O`, the IC50 with Influenza A virus [1] was over 118 µM.
On to `CCCC1(CCC)C[C@@](C)(O)[C@@H]2CC[C@@H](C)C[C@@H]2O1`, for which, in the data set with Influenza A virus [1], the IC50 turned out to be 45.5 µM. Moreover, the selectivity ratio in data set [2] amounted to 3.
The matching figures for `C[C@@H]1CC[C@@H]2[C@@H](C1)OC(C)(C)C[C@]2(C)O`: 70.8 µM and 12.
The matching figures for `C[C@@H]1CC[C@@H]2[C@H](C1)OC1(CCCCCC1)C[C@@]2(C)O`: 82.7 µM and 3.
Take `CCC[C@H]1C[C@@](C)(O)[C@@H]2CC[C@@H](C)C[C@H]2O1`: in the data set on Influenza A virus [1], the IC50 is over 1330 µM.
As for `CCC1(CC)C[C@@](C)(O)[C@@H]2CC[C@@H](C)C[C@@H]2O1`, the IC50 in the data set on Influenza A virus [1] was 19.6 µM. Also, the selectivity ratio in data set [2] was determined as 10.
For `C[C@@H]1CC[C@@H]2[C@H](C1)OC1(CCCCC1)C[C@@]2(C)O` the same measures were 18.3 µM and 34.
The matching figures for `C[C@@H]1CC[C@@H]2[C@H](C1)OC(C)(C)CC2(C)O` (some centres undefined): 17 µM and 4.
As to `CC(C)=O` [ACETONE], the IC50 in the data set on Influenza A virus [1] was determined as 7.5 µM.
For the compound `C[C@@H]1CC[C@@H]2[C@H](C1)OC1(CCCC1)C[C@@]2(C)O`, the half-maximal inhibitory concentration (IC50) in the data set on Influenza A virus [1] was 8.4 µM. Further, the selectivity ratio in data set [2] came out at 96.
The matching figures for `C[C@@H]1CC[C@@H]2[C@@H](C1)O[C@@H](C1CCCCC1)C[C@@]2(C)O`: 12.4 µM and 2.
As to `C[C@@H]1CC[C@@H]2[C@@H](C1)OC(C)(C)C[C@@]2(C)O`, the IC50 in the data set with Influenza A virus [3] was over 1420 µM; in the data set on Influenza A virus [4], 0.9 µM; in the data set with Influenza A virus [1], 7.5 µM; in the data set with Influenza B virus it was 17 µM. The selectivity ratio in data set [5] came out at 1570; in data set [6] it was 1; in data set [7], 83.
As for `CC(N)C12CC3CC(CC(C3)C1)C2` (centres undefined) [RIMANTADINE], the IC50 with Influenza A virus [1] turned out to be 72 µM. In addition, the selectivity ratio in data set [2] amounted to 4.
For the compound `NC(=O)c1ncn([C@@H]2O[C@H](CO)[C@@H](O)[C@H]2O)n1` [RIBAVIRIN], the IC50 with Influenza A virus [1] was 44 µM.

A word on the IC50: it is the concentration that inhibits the measured activity by half.
